Data published in US20020115727A1, “Synthesis, methods of using, and compositions of hydroxylated cyclobutylalkylamines” (priority 2000, published 2002).
Read-outs that look alike come from different tables or passages of the source.

Key:
[1] = biological target: T1, functional uptake of norepinephrine (NE) into synaptosomes prepared from rat hypothalamus (Rattus norvegicus, UniProt Q63380); assay: Functional uptake of norepinephrine (NE) into synaptosomes; format: biochemical; settings: 10 concentrations in duplicate
T1 construct: into synaptosomes prepared from rat whole brain, hypothalamus, or corpora striata, respectively; from tissue; host or cells: rat hypothalamus synaptosomes
Protocol: (§1) The 1-OH metabolites of N-didesmethylsibutramine (1-OH-DDMS) were tested to determine thir ability to functional uptake of serotonin (5-HT), norepinephrine (NE), or dopamine (DA), into synaptosomes prepared from rat whole brain, hypothalamus, or corpora striata, respectively. In addition, binding was determined at the nonselective muscarinic receptor and the β3-receptor from rat cerebral cortex and rat adipose tissue, respectively. The 1-OH-DDMS compounds tested contain two chiral centers (C2, C4): (2R,4R) (2S,4R), (2R,4S), and (2S,4S).
(§2) The 1-OH metabolites of N-desmethylsibutramine (DMS) were also tested to determine their ability to inhibit functional uptake of serotonin (5-HT), norepinephrine (NE), or dopamine (DA), into synaptosomes prepared from rat whole brain, hypothalamus, or corpora striata, respectively. In addition, binding was determined at the nonselective muscarinic receptor and the β3-receptor from rat cerebral cortex and rat adipose tissue, respectively. The 1-OH-DMS compounds tested contained two chiral centers (C2, C4): (2R,4R), (2S,4S), (2R,4S), and (2S,4R).

[2] = biological target: T2, functional uptake of serotonin (5-HT) into synaptosomes prepared from rat whole brain (Rattus norvegicus, UniProt P31652); assay: Functional uptake of serotonin (5-HT) into synaptosomes; format: biochemical; settings: for IC50: rat whole brain synaptosomes, 10 concentrations in duplicate; for inhibition at 10 µM: read-out: inhibition of 5-HT uptake (no IC50 determined)
T2 construct: into synaptosomes prepared from rat whole brain, hypothalamus, or corpora striata, respectively; from tissue; host or cells: rat whole brain synaptosomes
Protocol: as §1, §2

[3] = biological target: T3, functional uptake of dopamine (DA) into synaptosomes prepared from rat corpora striata (Rattus norvegicus, UniProt P23977); assay: Functional uptake of dopamine (DA) into synaptosomes; format: biochemical; settings: 10 concentrations in duplicate
T3 construct: into synaptosomes prepared from rat whole brain, hypothalamus, or corpora striata, respectively; from tissue; host or cells: rat corpora striata synaptosomes
Protocol: as §1, §2

[4] = biological target: T4, β3-receptor from rat adipose tissue (Rattus norvegicus, UniProt P26255); assay: Binding at the β3-receptor
T4 construct: from tissue; host or cells: rat adipose tissue
Protocol: Indeed, certain compounds have been tested. The 1-OH metabolites of N-didesmethylsibutramine (1-OH-DDMS) were tested to determine thir ability to functional uptake of serotonin (5-HT), norepinephrine (NE), or dopamine (DA), into synaptosomes prepared from rat whole brain, hypothalamus, or corpora striata, respectively. In addition, binding was determined at the nonselective muscarinic receptor and the β3-receptor from rat cerebral cortex and rat adipose tissue, respectively. The 1-OH-DDMS compounds tested contain two chiral centers (C2, C4): (2R,4R) (2S,4R), (2R,4S), and (2S,4S).
as §2

[5] = read-out: IC50 Values (nM) for 1-OH Metabolites of DMS in Functional Uptake Assays: NE
[6] = read-out: IC50 Values (nM) for 1-OH Metabolites of DMS in Functional Uptake Assays: 5-HT
[7] = read-out: IC50 Values (nM) for 1-OH Metabolites of DMS in Functional Uptake Assays: DA
[8] = read-out: IC50 Values (nM) for 1-OH Metabolites of DDMS in Functional Uptake Assays: NE
[9] = read-out: IC50 Values (nM) for 1-OH Metabolites of DDMS in Functional Uptake Assays: 5-HT
[10] = read-out: IC50 Values (nM) for 1-OH Metabolites of DDMS in Functional Uptake Assays: DA

T1 sequence (Q63380 1-617): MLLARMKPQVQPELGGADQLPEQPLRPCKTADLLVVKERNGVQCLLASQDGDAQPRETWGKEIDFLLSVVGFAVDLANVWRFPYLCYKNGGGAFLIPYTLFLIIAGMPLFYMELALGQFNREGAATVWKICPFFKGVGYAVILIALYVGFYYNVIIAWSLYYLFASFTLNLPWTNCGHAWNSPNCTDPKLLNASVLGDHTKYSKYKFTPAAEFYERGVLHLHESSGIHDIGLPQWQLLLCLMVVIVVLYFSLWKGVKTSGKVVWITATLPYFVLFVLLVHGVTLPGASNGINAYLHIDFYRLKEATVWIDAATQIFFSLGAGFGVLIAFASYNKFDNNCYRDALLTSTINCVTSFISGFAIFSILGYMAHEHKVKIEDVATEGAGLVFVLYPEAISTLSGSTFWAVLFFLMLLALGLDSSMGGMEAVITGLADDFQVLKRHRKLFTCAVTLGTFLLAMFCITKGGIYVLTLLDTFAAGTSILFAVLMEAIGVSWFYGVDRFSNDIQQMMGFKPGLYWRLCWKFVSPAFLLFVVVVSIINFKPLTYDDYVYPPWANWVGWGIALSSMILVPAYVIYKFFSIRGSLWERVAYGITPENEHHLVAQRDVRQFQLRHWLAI
T2 sequence (P31652 whole entry): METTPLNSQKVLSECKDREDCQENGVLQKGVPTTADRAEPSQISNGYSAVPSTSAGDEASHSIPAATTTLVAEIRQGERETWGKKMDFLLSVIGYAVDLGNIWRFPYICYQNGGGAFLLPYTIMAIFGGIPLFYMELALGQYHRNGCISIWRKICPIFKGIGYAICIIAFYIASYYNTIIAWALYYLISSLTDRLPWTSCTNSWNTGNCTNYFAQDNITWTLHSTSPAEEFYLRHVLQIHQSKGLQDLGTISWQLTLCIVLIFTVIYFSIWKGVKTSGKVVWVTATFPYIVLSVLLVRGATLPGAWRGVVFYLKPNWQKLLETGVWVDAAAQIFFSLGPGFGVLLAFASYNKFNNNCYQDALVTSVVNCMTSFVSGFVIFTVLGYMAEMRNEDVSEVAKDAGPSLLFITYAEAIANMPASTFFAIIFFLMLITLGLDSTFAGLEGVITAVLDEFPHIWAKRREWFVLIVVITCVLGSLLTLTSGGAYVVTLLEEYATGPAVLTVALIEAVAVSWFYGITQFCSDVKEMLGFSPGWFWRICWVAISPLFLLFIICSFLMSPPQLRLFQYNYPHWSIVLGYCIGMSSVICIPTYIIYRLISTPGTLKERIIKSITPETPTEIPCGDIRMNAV
T3 sequence (P23977 whole entry): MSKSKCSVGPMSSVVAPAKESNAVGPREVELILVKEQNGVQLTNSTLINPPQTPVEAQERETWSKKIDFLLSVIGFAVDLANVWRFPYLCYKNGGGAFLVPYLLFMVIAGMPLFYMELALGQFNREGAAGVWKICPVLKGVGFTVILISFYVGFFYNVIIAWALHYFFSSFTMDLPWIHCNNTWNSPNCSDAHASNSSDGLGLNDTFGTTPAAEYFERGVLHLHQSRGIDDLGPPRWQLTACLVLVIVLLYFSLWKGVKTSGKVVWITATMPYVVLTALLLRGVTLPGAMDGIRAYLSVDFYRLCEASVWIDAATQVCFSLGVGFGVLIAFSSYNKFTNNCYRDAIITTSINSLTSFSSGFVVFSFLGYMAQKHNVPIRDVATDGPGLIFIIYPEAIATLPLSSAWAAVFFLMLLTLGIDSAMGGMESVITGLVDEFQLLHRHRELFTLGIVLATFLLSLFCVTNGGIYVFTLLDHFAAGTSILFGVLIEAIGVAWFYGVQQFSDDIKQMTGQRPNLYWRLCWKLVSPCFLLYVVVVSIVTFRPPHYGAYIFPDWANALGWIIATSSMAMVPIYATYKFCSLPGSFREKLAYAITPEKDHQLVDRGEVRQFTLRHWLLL
T4 sequence (P26255 whole entry): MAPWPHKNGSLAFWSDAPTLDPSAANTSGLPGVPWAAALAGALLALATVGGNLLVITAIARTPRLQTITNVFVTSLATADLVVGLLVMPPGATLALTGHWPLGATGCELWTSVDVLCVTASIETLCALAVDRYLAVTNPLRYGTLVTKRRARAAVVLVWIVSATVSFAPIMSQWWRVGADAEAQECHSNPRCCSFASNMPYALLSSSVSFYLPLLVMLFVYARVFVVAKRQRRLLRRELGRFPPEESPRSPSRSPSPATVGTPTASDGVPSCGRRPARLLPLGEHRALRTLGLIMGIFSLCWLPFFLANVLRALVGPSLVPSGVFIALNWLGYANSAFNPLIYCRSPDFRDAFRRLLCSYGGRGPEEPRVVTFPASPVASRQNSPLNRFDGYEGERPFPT

SMILES	IC50 [1, 5] [nM]	IC50 [2, 6] [nM]	IC50 [3, 7] [nM]	inhibition at 10 µM ([4]; read-out: inhibition at the β3-receptor (1-OH-DMS compounds)) [%]	inhibition at 10 µM [2] [%]	IC50 [1, 8] [nM]	IC50 [2, 9] [nM]	IC50 [3, 10] [nM]	inhibition at 10 µM ([4]; read-out: inhibition at the β3-receptor (1-OH-DDMS compounds)) [%]
CN[C@H](C[C@H](C)CO)C1(c2ccc(Cl)cc2)CCC1 [(2S,4R)-1-OH-DMS, (2S, 4R)-4-Methylamino-4-[1-(4-chlorophenyl)cyclobutyl]-2-methyl-butan-1-ol]	9.3	160	37	24	–	–	–	–	–
CN[C@@H](C[C@@H](C)CO)C1(c2ccc(Cl)cc2)CCC1 [(2R,4S)-1-OH-DMS, (2R, 4S)-4-Methylamino-4-[1-(4-chlorophenyl)cyclobutyl]-2-methyl-butan-1-ol]	74	–	2500	–	< 50	–	–	–	–
C[C@H](CO)C[C@@H](N)C1(c2ccc(Cl)cc2)CCC1 [(2S,4R)-1-OH-DDMS, (2S,4R)-4-Amino-4-[1-(4-chlorophenyl)cyclobutyl]-2-methyl-butan-1-ol]	–	–	–	–	–	11	65	37	–
C[C@H](CO)C[C@H](N)C1(c2ccc(Cl)cc2)CCC1 [(2S,4S)-1-OH-DDMS, (2S, 4S)-4-Amino-4-[1-(4-chlorophenyl)cyclobutyl]-2-methyl-butan-1-ol]	–	–	–	–	–	150	1200	33	30
CN[C@@H](C[C@H](C)CO)C1(c2ccc(Cl)cc2)CCC1 [(2S,4S)-1-OH-DMS, (2S, 4S)-4-Methylamino-4-[1-(4-chlorophenyl)cyclobutyl]-2-methyl-butan-1-ol]	250	–	430	–	< 50	–	–	–	–
CN[C@H](C[C@@H](C)CO)C1(c2ccc(Cl)cc2)CCC1 [(2R,4R)-1-OH-DMS]	2.2	12	19	–	–	–	–	–	–
C[C@@H](CO)C[C@H](N)C1(c2ccc(Cl)cc2)CCC1 [(2R,4S)-1-OH-DDMS, (2R, 4S)-4-Amino-4-[1-(4-chlorophenyl)cyclobutyl]-2-methyl-butan-1-ol]	–	–	–	–	–	71	2000	110	–
C[C@@H](CO)C[C@@H](N)C1(c2ccc(Cl)cc2)CCC1 [(2R,4R)-1-OH-DDMS, (2R, 4R)-4-Amino-4-[1-(4-chlorophenyl)cyclobutyl]-2-methyl-butan-1-ol]	–	–	–	–	–	4.7	34	27	–
